Among the data in ChEMBL document CHEMBL3991601, “The target landscape of clinical kinase drugs” (Science, 2017) are Kd values, retold here.

Active and inactive are the calls of the source. Cut-off read from the data, not from the text of the source, for most assays here: actives have a measured Kd and inactives only a lower limit. Some results are limits rather than exact numbers.

For experiment [1], the target named is Mitogen-activated protein kinase kinase kinase 4 (Homo sapiens, UniProt Q9Y6R4).
Mitogen-activated protein kinase kinase kinase 4, sequence (Q9Y6R4 whole entry): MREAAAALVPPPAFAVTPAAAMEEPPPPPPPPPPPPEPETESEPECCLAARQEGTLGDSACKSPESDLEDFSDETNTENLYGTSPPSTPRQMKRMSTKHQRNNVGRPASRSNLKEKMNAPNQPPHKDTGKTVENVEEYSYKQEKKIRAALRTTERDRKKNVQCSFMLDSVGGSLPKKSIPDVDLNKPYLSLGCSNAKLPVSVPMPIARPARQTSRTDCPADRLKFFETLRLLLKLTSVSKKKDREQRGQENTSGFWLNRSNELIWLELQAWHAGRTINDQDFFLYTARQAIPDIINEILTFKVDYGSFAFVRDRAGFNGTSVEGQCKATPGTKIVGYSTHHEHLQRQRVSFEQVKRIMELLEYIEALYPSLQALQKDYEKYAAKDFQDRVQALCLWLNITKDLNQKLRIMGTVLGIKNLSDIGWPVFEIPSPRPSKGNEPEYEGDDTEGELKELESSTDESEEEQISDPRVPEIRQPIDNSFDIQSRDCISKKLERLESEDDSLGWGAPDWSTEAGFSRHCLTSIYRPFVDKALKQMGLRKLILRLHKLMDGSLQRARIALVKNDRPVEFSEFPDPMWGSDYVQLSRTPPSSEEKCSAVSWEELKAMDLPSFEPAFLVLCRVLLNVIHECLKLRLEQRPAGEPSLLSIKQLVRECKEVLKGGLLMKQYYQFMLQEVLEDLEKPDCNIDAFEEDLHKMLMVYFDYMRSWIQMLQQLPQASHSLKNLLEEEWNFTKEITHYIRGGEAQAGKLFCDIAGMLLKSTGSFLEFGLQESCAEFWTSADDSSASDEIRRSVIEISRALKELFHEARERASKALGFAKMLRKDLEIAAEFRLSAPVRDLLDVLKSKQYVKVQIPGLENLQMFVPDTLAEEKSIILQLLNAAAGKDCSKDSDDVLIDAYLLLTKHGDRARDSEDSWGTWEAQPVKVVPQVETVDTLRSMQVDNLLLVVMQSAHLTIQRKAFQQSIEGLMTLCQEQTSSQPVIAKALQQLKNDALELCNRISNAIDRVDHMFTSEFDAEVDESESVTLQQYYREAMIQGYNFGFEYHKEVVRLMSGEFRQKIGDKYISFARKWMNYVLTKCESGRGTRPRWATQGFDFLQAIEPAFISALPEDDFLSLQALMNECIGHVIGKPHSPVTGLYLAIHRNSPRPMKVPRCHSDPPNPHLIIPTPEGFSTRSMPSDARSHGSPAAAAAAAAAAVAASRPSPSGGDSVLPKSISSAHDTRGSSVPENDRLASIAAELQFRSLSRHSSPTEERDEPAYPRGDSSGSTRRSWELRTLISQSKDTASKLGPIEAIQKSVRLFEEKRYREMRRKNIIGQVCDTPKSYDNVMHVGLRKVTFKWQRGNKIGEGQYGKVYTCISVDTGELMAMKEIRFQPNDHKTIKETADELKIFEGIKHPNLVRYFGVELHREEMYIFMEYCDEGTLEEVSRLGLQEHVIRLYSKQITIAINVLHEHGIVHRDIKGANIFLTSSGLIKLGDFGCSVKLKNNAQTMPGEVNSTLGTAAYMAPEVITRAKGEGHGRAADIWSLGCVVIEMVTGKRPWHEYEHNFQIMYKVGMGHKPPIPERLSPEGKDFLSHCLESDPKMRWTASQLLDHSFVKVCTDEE
The target in experiment [2] is Tyrosine-protein kinase FRK (Homo sapiens, UniProt P42685).
Tyrosine-protein kinase FRK, sequence (P42685 whole entry): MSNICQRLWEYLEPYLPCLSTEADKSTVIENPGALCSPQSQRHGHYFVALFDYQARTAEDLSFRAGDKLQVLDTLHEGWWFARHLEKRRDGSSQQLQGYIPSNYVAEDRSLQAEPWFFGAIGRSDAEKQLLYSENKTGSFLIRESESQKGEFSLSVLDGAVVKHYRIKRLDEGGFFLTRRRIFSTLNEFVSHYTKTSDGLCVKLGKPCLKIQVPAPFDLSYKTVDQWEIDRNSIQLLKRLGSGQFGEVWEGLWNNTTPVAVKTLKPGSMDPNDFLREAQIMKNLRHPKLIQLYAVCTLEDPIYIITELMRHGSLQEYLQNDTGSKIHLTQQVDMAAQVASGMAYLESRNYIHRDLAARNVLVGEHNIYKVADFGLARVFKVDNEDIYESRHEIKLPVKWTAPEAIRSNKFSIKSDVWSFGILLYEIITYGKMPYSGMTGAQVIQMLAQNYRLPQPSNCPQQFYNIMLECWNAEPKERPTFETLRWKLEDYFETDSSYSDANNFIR
Experiment [3] concerns the target Serine/threonine-protein kinase N2 (Homo sapiens, UniProt Q16513).
Experiment [4] deals with T1, Dual specificity mitogen-activated protein kinase kinase 3 (Homo sapiens, UniProt P46734).
T1 sequence (P46734 whole entry): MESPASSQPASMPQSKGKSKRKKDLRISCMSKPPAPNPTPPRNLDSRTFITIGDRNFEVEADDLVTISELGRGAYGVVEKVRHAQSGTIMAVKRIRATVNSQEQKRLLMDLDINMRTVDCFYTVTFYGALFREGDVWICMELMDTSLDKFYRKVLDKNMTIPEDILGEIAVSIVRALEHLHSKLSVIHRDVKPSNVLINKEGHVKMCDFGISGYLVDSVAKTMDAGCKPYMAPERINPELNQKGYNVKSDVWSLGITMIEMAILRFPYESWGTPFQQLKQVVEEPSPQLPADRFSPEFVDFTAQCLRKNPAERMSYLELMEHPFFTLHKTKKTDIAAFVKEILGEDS

Experiment [5] concerns the target Calcium/calmodulin-dependent protein kinase kinase 2 (Homo sapiens, UniProt Q96RR4).
Experiment [6] deals with Casein kinase II subunit alpha' (Homo sapiens, UniProt P19784).
Casein kinase II subunit alpha', sequence (P19784 whole entry): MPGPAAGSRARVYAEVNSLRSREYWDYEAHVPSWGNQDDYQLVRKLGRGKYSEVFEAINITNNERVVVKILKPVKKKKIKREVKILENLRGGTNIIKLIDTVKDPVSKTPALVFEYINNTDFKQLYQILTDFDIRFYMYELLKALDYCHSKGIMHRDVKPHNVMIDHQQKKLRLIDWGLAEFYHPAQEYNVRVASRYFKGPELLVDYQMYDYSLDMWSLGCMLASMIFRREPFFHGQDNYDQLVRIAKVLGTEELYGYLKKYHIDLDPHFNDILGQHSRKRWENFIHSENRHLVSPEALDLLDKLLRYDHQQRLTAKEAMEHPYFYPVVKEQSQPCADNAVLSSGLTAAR
The target of experiment [7] is Citron Rho-interacting kinase (Homo sapiens, UniProt O14578).
Experiment [8] addresses T2, EKC/KEOPS complex subunit TP53RK (Homo sapiens, UniProt Q96S44).
T2 sequence (Q96S44 whole entry): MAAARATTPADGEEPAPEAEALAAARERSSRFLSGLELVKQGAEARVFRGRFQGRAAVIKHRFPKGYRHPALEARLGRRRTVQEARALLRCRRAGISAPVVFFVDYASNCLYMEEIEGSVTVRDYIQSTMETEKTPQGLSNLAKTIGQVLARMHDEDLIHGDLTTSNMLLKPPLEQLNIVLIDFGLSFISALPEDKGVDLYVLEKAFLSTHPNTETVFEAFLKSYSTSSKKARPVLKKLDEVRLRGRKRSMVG

The target of experiment [9] is Mitogen-activated protein kinase 9 (Homo sapiens, UniProt P45984).
Mitogen-activated protein kinase 9, sequence (P45984 whole entry): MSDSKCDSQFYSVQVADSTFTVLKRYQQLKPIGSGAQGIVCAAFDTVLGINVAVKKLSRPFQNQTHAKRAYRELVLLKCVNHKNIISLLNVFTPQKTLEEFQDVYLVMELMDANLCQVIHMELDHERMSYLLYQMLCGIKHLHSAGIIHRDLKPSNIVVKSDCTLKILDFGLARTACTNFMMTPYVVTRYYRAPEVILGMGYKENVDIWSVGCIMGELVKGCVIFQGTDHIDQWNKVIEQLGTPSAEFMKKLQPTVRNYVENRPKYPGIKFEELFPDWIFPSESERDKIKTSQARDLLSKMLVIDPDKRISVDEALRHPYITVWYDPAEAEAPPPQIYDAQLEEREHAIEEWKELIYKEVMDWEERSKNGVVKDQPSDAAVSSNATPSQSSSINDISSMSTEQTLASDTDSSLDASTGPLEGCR
Experiment [10] deals with T3, Phenylalanine--tRNA ligase beta subunit (Homo sapiens, UniProt Q9NSD9).
T3 sequence (Q9NSD9 whole entry): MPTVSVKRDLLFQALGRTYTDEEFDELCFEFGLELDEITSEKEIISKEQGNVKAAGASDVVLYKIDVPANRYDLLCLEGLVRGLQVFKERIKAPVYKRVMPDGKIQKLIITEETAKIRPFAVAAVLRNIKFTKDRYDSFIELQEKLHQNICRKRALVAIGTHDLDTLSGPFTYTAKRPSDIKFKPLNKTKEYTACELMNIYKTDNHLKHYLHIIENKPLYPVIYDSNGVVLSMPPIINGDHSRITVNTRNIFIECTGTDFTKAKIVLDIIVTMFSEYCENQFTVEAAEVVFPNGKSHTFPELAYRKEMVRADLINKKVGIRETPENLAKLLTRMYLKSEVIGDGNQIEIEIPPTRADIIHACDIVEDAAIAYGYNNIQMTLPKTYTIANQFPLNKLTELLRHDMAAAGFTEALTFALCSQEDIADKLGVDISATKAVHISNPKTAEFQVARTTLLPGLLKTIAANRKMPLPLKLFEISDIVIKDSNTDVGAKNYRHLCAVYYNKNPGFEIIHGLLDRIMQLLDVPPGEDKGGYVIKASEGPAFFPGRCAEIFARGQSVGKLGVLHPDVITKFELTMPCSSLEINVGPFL

Experiment [11] has as its target T4, Peroxisomal acyl-coenzyme A oxidase 1 (Homo sapiens, UniProt Q15067).
T4 sequence (Q15067 whole entry): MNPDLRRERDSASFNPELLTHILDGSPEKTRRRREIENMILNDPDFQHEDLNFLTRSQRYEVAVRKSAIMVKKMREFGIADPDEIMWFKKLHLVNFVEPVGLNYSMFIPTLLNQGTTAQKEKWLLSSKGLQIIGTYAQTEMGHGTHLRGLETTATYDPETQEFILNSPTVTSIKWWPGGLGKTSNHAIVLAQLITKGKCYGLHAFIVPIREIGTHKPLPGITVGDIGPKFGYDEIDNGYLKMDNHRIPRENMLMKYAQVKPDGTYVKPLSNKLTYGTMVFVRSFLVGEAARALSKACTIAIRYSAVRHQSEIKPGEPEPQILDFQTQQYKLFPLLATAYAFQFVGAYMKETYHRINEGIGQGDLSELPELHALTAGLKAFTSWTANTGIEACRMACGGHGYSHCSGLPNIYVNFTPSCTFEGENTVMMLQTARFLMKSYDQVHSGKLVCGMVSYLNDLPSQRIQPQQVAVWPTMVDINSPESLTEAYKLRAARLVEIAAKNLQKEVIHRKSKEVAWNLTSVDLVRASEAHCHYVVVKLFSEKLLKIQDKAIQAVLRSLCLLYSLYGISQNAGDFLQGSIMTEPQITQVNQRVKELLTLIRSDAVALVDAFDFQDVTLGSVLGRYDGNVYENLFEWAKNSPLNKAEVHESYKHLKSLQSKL
Note: in the data inactive means no Kd found up to 30 µM.

Calcium/calmodulin-dependent protein kinase kinase 2, sequence (Q96RR4 whole entry): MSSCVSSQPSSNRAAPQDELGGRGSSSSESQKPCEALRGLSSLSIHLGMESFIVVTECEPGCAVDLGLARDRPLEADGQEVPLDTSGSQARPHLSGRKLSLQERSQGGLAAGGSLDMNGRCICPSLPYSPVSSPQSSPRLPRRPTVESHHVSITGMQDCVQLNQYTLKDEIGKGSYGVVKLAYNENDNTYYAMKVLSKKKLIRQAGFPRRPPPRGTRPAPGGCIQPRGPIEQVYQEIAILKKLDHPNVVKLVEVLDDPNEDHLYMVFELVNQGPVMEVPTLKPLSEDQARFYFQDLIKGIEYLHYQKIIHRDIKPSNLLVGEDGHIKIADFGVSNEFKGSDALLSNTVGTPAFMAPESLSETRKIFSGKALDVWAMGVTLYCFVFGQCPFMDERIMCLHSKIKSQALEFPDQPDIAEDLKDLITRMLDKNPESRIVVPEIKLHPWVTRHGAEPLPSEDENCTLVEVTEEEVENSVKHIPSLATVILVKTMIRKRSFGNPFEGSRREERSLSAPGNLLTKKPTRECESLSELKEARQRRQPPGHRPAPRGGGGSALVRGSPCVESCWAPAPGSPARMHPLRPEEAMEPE
Serine/threonine-protein kinase N2, sequence (Q16513 whole entry): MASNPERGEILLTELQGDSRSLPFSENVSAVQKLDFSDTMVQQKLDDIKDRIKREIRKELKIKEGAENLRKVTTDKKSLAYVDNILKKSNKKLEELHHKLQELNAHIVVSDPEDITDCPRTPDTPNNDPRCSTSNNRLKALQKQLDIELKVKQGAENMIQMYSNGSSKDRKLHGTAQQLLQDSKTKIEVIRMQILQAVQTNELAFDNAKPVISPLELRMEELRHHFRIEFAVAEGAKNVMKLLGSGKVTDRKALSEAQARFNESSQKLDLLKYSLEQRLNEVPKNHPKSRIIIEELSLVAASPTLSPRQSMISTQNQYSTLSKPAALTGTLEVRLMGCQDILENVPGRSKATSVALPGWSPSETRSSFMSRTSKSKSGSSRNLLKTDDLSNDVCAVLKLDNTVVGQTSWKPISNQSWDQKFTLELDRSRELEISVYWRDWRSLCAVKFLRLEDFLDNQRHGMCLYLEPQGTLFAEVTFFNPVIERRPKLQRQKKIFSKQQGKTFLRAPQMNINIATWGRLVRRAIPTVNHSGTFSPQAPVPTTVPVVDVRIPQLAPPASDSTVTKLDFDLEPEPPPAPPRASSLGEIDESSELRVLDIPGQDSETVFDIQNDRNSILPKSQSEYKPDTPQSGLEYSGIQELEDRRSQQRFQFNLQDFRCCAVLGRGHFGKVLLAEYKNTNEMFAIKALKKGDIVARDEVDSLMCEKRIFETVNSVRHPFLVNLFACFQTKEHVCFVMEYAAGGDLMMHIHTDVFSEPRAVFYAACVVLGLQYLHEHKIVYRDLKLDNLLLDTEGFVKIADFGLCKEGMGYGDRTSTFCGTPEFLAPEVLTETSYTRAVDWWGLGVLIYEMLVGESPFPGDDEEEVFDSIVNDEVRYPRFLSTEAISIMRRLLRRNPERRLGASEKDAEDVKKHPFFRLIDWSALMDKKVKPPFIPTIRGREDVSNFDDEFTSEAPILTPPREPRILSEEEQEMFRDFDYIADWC

As to `COc1cc(OC)c(/C=C/S(=O)(=O)Cc2ccc(OC)c(NCC(=O)O)c2)c(OC)c1` [RIGOSERTIB], the Kd in experiment [1], in [2], in experiment [3], in experiment [4], in experiment [5] and in experiment [6] was > 30 µM (inactive) throughout. Moreover, the Kd in experiment [7], in [8], in [9] and in experiment [10] was > 30 µM (inactive) in each case.
`OCCn1cc(-c2cnc3nnn(Cc4ccc5ncccc5c4)c3n2)cn1` [PF-04217903]: the Kd in [1], in [2], in [3], in [4], in [11] and in [5] was > 30 µM (inactive) throughout. Moreover, the Kd in experiment [6], in experiment [7], in experiment [8] and in [10] was > 30 µM (inactive) throughout.
Consider `CCn1c(-c2nonc2N)nc2c(C#CC(C)(C)O)ncc(OC[C@H]3CCCNC3)c21` [GSK-690693], for which the Kd in experiment [11], in experiment [8] and in experiment [10] was > 30 µM (inactive) each time.
As to `Cc1cc(Nc2cc(N3CCN(C)CC3)nc(/C=C/c3ccccc3)n2)n[nH]1` [ENMD-2076], the Kd was > 30 µM (inactive) in experiment [1]; > 30 µM (inactive) in experiment [4]; > 30 µM (inactive) in [11]; > 30 µM (inactive) in experiment [5]; 4.41 µM (active) in [6]; > 30 µM (inactive) in experiment [7]. Also, the Kd in experiment [8] and in [10] was > 30 µM (inactive) in each case.
Regarding `CCS(=O)(=O)N1CC(CC#N)(n2cc(-c3ncnc4[nH]ccc34)cn2)C1` [BARICITINIB], the Kd in [1], in [2], in experiment [4], in [11], in experiment [5] and in [6] was > 30 µM (inactive) in each case. Also, the Kd in experiment [7] is 4.36 µM (active); in experiment [8], > 30 µM (inactive); in experiment [9], > 30 µM (inactive); in experiment [10], > 30 µM (inactive).
For the compound `O=C(O)[C@]1(Cc2cccc(Nc3nccs3)n2)CC[C@@H](Oc2cccc(Cl)c2F)CC1` [MK-5108], the Kd is > 30 µM (inactive) in experiment [1]; 0.724 µM (active) in experiment [2]; > 30 µM (inactive) in experiment [3]; > 30 µM (inactive) in [4]; > 30 µM (inactive) in experiment [5]; > 30 µM (inactive) in experiment [6]. Also, the Kd in experiment [7], in [8], in experiment [9] and in experiment [10] was > 30 µM (inactive) in each case.
Consider `Cc1c(F)cc(C(=O)NC2CC2)cc1-c1ccc(C(=O)NCC(C)(C)C)cn1` [LOSMAPIMOD], for which the Kd in experiment [1], in experiment [2], in experiment [3], in experiment [4], in [5] and in experiment [6] was > 30 µM (inactive) each time. Besides, the Kd in experiment [7], in [8], in experiment [9] and in experiment [10] was > 30 µM (inactive) in each case.
Turning to `Nc1nc(N)c2nc(-c3cccc(O)c3)c(-c3cccc(O)c3)nc2n1` [TG100-115], the Kd in experiment [11], in experiment [6], in experiment [8] and in [10] was > 30 µM (inactive) throughout.
As for `CN1CCN(c2ccc3nc(-c4c(N)c5c(F)cccc5[nH]c4=O)[nH]c3c2)CC1` [DOVITINIB], the Kd in experiment [11], in experiment [8] and in experiment [10] was > 30 µM (inactive) throughout.
As for `O=C(Nc1cccc(Cl)c1)Nc1ncc(CCNc2ncnc3ccsc23)s1` [SNS-314], the Kd in experiment [1], in [11], in experiment [5], in [6], in experiment [8] and in experiment [10] was > 30 µM (inactive) each time.
In the case of `CCc1cnn2c(NCc3ccc[n+]([O-])c3)cc(N3CCCC[C@H]3CCO)nc12` [DINACICLIB], the Kd in experiment [1], in [2], in experiment [3], in experiment [4], in experiment [11] and in experiment [5] was > 30 µM (inactive) each time. Also, the Kd in experiment [6], in experiment [7], in experiment [8] and in experiment [10] was > 30 µM (inactive) throughout.
As to `CNC(=O)c1ccc(C)c(-n2c(C)cc(OCc3ccc(F)cc3F)c(Br)c2=O)c1` [PH-797804], the Kd in experiment [1], in [2], in [3], in [4], in experiment [11] and in experiment [5] was > 30 µM (inactive) throughout. Further, the Kd in experiment [6], in [7], in [8] and in [10] was > 30 µM (inactive) in each case.
With `COc1cc2nccc(Oc3ccc(NC(=O)Nc4cc(C)on4)c(Cl)c3)c2cc1OC` [TIVOZANIB], the Kd in [1], in experiment [3], in experiment [4], in [11], in experiment [5] and in [6] was > 30 µM (inactive) throughout. Moreover, the Kd in experiment [7], in [8], in experiment [9] and in [10] was > 30 µM (inactive) throughout.
Turning to `Cc1nc(N)sc1-c1ccnc(Nc2ccc(N3CCOCC3)cc2)n1` [CYC-116], the Kd was > 30 µM (inactive) in experiment [1]; > 30 µM (inactive) in experiment [4]; > 30 µM (inactive) in experiment [11]; 52.8 µM (active) in experiment [5]; 0.015 µM (active) in [6]; 1.1 µM (active) in experiment [7]. Further, the Kd in experiment [8] and in experiment [10] was > 30 µM (inactive) in each case.
Take `Cc1cn(-c2cc(NC(=O)c3ccc(C)c(Nc4nccc(-c5cccnc5)n4)c3)cc(C(F)(F)F)c2)cn1` [NILOTINIB]: the Kd in [8] and in [10] was > 30 µM (inactive) throughout.
